Experimental data published in patent US6818663B2, “Diaminothiazoles” (Hoffmann-La Roches, priority 2002, dated 2004).

How the values were obtained:
[1] = target: human cyclin D1-CDK4 (Homo sapiens, UniProt P11802); test: FlashPlate kinase assay, cyclin D1-CDK4, Rb substrate; assay type: biochemical; conditions: recombinant cyclin D1-CDK4, Rb phosphorylation, 1 μM ATP
Summary of the method: (§1)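 Recombinant human cyclin–CDK complexes, co-expressed in insect cells, phosphorylated His-tagged Rb (aa 386-928) coated on FlashPlates at 10 μg/ml. Reaction used 1 μM ATP plus 4 nM ^33P-ATP and 20 mM MgCl2 for 30 min at room temperature. % inhibition came from scintillation counts against no-enzyme and no-compound wells, and IC50 was the concentration halving radiolabel incorporation.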

[2] = system: HCT116, a colorectal carcinoma cell line; test: Tetrazolium dye proliferation assay (MTT assay); assay type: cell-based; conditions: Homo sapiens, HCT-116, HCT116 cells, inhibition of cell proliferation
Summary of the method: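 HCT116 cells in McCoy's 5A + 10% FCS, plated overnight, then dosed in duplicate with serial dilutions (final DMSO 0.3%) and incubated to growth-curve time points. MTT at 1 mg/ml for 2.5-3 h, formazan in ethanol, A570/650. IC50 by linear regression of log concentration vs % inhibition relative to blank and DMSO controls.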

[3] = target: human cyclin B-CDK1 (Homo sapiens, UniProt P06493); test: FlashPlate kinase assay, cyclin B-CDK1, Rb substrate; assay type: biochemical; conditions: recombinant cyclin B-CDK1, Rb phosphorylation, 1 μM ATP
Summary of the method: as §1

[4] = target: human cyclin E-CDK2 (Homo sapiens, UniProt P24941); test: FlashPlate kinase assay, cyclin E-CDK2, Rb substrate; assay type: biochemical; conditions: recombinant cyclin E-CDK2, Rb phosphorylation, 1 μM ATP
Summary of the method: as §1

Sequence of human cyclin B-CDK1 (P06493 whole entry): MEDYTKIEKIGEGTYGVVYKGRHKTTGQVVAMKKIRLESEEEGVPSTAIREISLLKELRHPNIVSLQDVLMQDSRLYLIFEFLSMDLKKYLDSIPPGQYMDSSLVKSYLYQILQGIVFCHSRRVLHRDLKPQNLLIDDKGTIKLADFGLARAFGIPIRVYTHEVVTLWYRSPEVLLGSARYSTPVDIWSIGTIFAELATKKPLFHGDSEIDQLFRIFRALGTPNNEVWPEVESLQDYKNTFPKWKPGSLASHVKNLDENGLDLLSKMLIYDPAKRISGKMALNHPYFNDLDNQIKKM
Sequence of human cyclin B-CDK1 (P14635 whole entry partner): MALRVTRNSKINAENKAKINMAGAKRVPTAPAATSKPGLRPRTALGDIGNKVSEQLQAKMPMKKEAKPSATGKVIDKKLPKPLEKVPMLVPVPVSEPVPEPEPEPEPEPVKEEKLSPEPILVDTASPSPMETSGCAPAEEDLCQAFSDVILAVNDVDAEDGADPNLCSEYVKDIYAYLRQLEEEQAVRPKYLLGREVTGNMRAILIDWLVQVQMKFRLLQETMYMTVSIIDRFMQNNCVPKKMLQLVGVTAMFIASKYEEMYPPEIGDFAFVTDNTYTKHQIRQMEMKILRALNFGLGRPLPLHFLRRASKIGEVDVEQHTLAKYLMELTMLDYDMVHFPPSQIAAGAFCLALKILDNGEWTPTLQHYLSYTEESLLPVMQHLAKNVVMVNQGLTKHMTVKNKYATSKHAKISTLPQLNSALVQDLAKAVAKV
Sequence of human cyclin D1-CDK4 (P11802 whole entry, the tested form may be a part): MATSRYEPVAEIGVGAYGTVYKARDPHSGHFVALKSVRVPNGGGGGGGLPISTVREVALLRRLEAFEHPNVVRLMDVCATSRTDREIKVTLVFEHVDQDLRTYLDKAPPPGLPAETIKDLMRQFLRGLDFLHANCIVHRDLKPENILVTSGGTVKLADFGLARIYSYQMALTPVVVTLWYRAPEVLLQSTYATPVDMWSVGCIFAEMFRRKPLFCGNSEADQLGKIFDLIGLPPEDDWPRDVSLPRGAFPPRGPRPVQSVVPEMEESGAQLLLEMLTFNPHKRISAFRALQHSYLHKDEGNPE
Sequence of human cyclin D1-CDK4 (P24385 whole entry partner, the tested form may be a part): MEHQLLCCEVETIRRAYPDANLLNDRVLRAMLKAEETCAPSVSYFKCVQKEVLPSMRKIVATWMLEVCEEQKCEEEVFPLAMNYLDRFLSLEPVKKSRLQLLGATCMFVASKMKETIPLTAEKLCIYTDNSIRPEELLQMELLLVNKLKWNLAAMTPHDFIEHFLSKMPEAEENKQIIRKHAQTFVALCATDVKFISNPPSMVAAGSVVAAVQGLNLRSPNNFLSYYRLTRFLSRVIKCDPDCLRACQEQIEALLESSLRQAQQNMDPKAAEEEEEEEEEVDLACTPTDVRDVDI

Compound	IC50 [1] [nM]	IC50 [2] [nM]	IC50 [3] [nM]	IC50 [4] [nM]	melting point
CCCc1cc(C(=O)c2sc(Nc3ccc(OC[C@@H](C)N(C)C)cc3)nc2N)ccc1O [Example 107, (R)-[4-Amino-2-[4-(2-dimethylamino-propoxy)-phenylamino]-thiazol-5-yl]-(4-hydroxy-3-propyl-phenyl)-methanone; Compound With Acetic Acid]	26	491	240	213	
CCCc1cc(C(=O)c2sc(Nc3ccc(OCC(C)(C)N(C)C)cc3)nc2N)ccc1O [Example 108, [4-Amino-2-[4-(2-dimethylamino-2-methyl-propoxy)-phenylamino]-thiazol-5-yl]-(4-hydroxy-3-propyl-phenyl)-methanone; Compound With Acetic Acid]	26	518	291	295	
CCCc1cc(C(=O)c2sc(Nc3ccc(OCCN4CCCC4)cc3)nc2N)ccc1O [Example 109, [4-Amino-2-[4-(2-pyrrolidin-1-yl-ethoxy)-phenylamino]-thiazol-5-yl]-(4-hydroxy-3-propyl-phenyl)-methanone; Compound With Acetic Acid]	14	229	151	207	
CCCc1cc(C(=O)c2sc(Nc3ccc(OC[C@@H](C)N4CCCC4)cc3)nc2N)ccc1O [Example 110, (R)-[4-Amino-2-[4-(2-pyrrolidin-1-yl-propoxy)-phenylamino]-thiazol-5-yl]-(4-hydroxy-3-propyl-phenyl)-methanone; Compound With Acetic Acid]	23	291	177	182	
CCc1cccc(C(=O)c2sc(Nc3ccc(OC[C@@H]4CCCN4C)cc3)nc2N)c1 [Example 112, (S)-[4-Amino-2-[4-(1-methyl-pyrrolidin-2-ylmethoxy)-phenylamino]-thiazol-5-yl]-(3-ethyl-phenyl)-methanone]	42	419	1890	2320	
CN1CCC[C@H]1COc1ccc(Nc2nc(N)c(C(=O)c3cccc(C4CC4)c3)s2)cc1 [Example 113, (S)-[4-Amino-2-[4-(1-methyl-pyrrolidin-2-ylmethoxy)-phenylamino]-thiazol-5-yl]-(3-cyclopropyl-phenyl)-methanone]	62	1070	3900	3340	
Cc1ccc(C(=O)c2sc(Nc3ccc(OC[C@@H]4CCCN4C)cc3)nc2N)cc1F [Example 114, (S)-[4-Amino-2-[4-(1-methyl-pyrrolidin-2-ylmethoxy)-phenylamino]-thiazol-5-yl]-(3-fluoro-4-methyl-phenyl)-methanone]	63	2070	850	5030	
CCCc1cc(C(=O)c2sc(Nc3ccc(OC[C@@H]4CCCN4C)cc3)nc2N)ccc1O [Example 115, (S)-[4-Amino-2-[4-(1-methyl-pyrrolidin-2-ylmethoxy)-phenylamino]-thiazol-5-yl]-(4-hydroxy-3-propyl-phenyl)-methanone Acetate]	27	169	357	267	
Nc1nc(Nc2ccc(OCCN3CCCC3)cc2)sc1C(=O)c1cccc(F)c1 [Example 118, [4-Amino-2-[4-(2-pyrrolidin-1-yl-ethoxy)-phenylamino]-thiazol-5-yl]-(3-fluoro-phenyl)-methanone; Compound With Acetic Acid]	62	517	248	889	
Nc1nc(Nc2ccc(OCCN3CCCC3)cc2)sc1C(=O)c1ccc(O)c(F)c1 [Example 120, [4-Amino-2-[4-(2-pyrrolidin-1-ylethoxy)-phenylamino]-thiazol-5-yl]-(3-fluoro-4-hydroxy-phenyl)-methanone; Compound With Acetic Acid]	38	1630	422	781	
COc1cccc(C(=O)c2sc(Nc3ccc(OC[C@@H](C)N4CCCC4)cc3)nc2N)c1 [Example 121, [R]-[4-Amino-2-[4-(2-pyrrolidin-1-yl-propoxy)-phenylamino]-thiazol-5-yl]-(3-methoxy-phenyl)-methanone; Compound With Acetic Acid]	60	1060	1790	4910	
CCN(CC)CCOc1ccc(Nc2nc(N)c(C(=O)c3ccc(O)c(F)c3)s2)cc1 [Example 123, [4-Amino-2-[4-(2-diethylamino-ethoxy)-phenylamino]-thiazol-5-yl]-(3-fluoro-4-hydroxy-phenyl)-methanone]	36	1870	422	1660	
CCN(CC)CCOc1ccc(Nc2nc(N)c(C(=O)c3ccc(OC)c(F)c3)s2)cc1 [Example 125, [4-Amino-2-[4-(2-diethylamino-ethoxy)-phenylamino]-thiazol-5-yl]-(3-fluoro-4-methoxy-phenyl)-methanone]	32	2220	2180	6790	
CCN(CC)CCOc1ccc(Nc2nc(N)c(C(=O)c3cccc(SC)c3)s2)cc1 [Example 126, [4-Amino-2-[4-(2-diethylamino-ethoxy)-phenylamino]-thiazol-5-yl]-(3-methylsulfanyl-phenyl)-methanone]	47	3970	1650	6070	
Nc1nc(Nc2ccc(OCCN3CCCC3)cc2)sc1C(=O)c1cccc(C(F)(F)F)c1 [Example 128, [4-Amino-2-[4-(2-pyrrolidin-1-yl-ethoxy)-phenylamino]-thiazol-5-yl]-(3-trifluoromethyl-phenyl)-methanone]	65	4590	2050	1310	
CCNCCOc1ccc(Nc2nc(N)c(C(=O)c3cccc(OC)c3)s2)cc1 [Example 130, [4-Amino-2-[4-(2-ethylamino-ethoxy)-phenylamino]-thiazol-5-yl]-(3-methoxy-phenyl)-methanone]	48	1390	784	3330	
CCNCCOc1ccc(Nc2nc(N)c(C(=O)c3cccc(F)c3)s2)cc1 [Example 131, [4-Amino-2-[4-(2-ethylamino-ethoxy)-phenylamino]-thiazol-5-yl]-(3-fluoro-phenyl)-methanone]	520	693	298	892	
CCNCCOc1ccc(Nc2nc(N)c(C(=O)c3ccc4c(c3)OCO4)s2)cc1 [Example 133, [4-Amino-2-[4-(2-ethylamino-ethoxy)-phenylamino]-thiazol-5-yl]-benzo[1,3]dioxol-5-yl-methanone]	29	3000	338	3170	
CC(C)NCCOc1ccc(Nc2nc(N)c(C(=O)c3ccc4c(c3)OCO4)s2)cc1 [Example 137, [4-Amino-2-[4-(2-isopropylamino-ethoxy)-phenylamino]-thiazol-5-yl]-benzo[1,3]dioxol-5-yl-methanone]	19	1730	457	2750	
COc1cccc(C(=O)c2sc(Nc3ccc(OCCN(C)C)cc3)nc2N)c1 [Example 144, [4-Amino-2-[4-(2-dimethylaminoethoxy)-phenylamino]-thiazol-5-yl]-(3-methoxy-phenyl)-methanone]	87		2490	4540	130 °C (dec.)
CCN(CC)CCOc1ccc(Nc2nc(N)c(C(=O)c3cccc(OC)c3)s2)cc1 [Example 145, [4-Amino-2-[4-(2-diethylaminoethoxy)-phenylamino]-thiazol-5-yl]-(3-methoxy-phenyl)-methanone]	41		219	900	118 to 123 °C
COc1cccc(C(=O)c2sc(Nc3ccc(OCCn4ccnc4)cc3)nc2N)c1 [Example 146, [4-Amino-2-[4-(2-imidazol-1-yl-ethoxy)-phenylamino]-thiazol-5-yl]-(3-methoxy-phenyl)-methanone]	67	4190	600	814	185 to 190 °C
